Patent US12077503B2, “Substituted cyclic amides and their use as herbicides” (FMC CORPORATION, priority 2015, dated 2024)

Experiments:
Assay in all cases: Test C preemergence
Type in all cases: in vivo
[1] = test system: crabgrass, large (large crabgrass, Digitaria sanguinalis); conditions: for Plant response rating, Crabgrass, Large: scale 0 to 100, 0 no effect, 100 complete control
How it was run: (§1)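 Assessment: visual, 13–15 d after treatment, 0 (no effect) to 100 (complete control) relative to controls. Treatment: preemergence to seeds in loam-sand soil, or postemergence to 1- to 4-leaf plants in peat-based medium. Formulation: non-phytotoxic solvent mixture with surfactant.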

[2] = test system: pigweed (Amaranthus retroflexus); conditions: for Plant response rating, Pigweed: scale 0 to 100, 0 no effect, 100 complete control
How it was run: as §1

soybean (Glycine max) = conditions: for Plant response rating, Soybean: scale 0 to 100, 0 no effect, 100 complete control
How it was run: as §1

[3] = test system: morningglory (Ipomoea coccinea); conditions: for Plant response rating, Morningglory: scale 0 to 100, 0 no effect, 100 complete control
How it was run: as §1

[4] = test system: velvetleaf (Abutilon theophrasti); conditions: for Plant response rating, Velvetleaf: scale 0 to 100, 0 no effect, 100 complete control
How it was run: as §1

[5] = test system: foxtail, giant (giant foxtail, Setaria faberii); conditions: for Plant response rating, Foxtail, Giant: scale 0 to 100, 0 no effect, 100 complete control
How it was run: as §1

[6] = test system: Galium (catchweed bedstraw, Galium aparine); conditions: for Plant response rating, Galium: scale 0 to 100, 0 no effect, 100 complete control
How it was run: as §1

[7] = test system: oilseed rape (Brassica napus); conditions: for Plant response rating, Oilseed Rape: scale 0 to 100, 0 no effect, 100 complete control
How it was run: as §1

[8] = test system: ryegrass, Italian (Italian ryegrass, Lolium multiflorum); conditions: for Plant response rating, Ryegrass, Italian: scale 0 to 100, 0 no effect, 100 complete control
How it was run: as §1

[9] = test system: wheat (winter wheat, Triticum aestivum); conditions: for Plant response rating, Wheat: scale 0 to 100, 0 no effect, 100 complete control
How it was run: as §1

corn (Zea mays) = conditions: for Plant response rating, Corn: scale 0 to 100, 0 no effect, 100 complete control
How it was run: as §1

[10] = test system: nutsedge, yellow (yellow nutsedge, Cyperus esculentus); conditions: for Plant response rating, Nutsedge, Yellow: scale 0 to 100, 0 no effect, 100 complete control
How it was run: as §1

[11] = test system: johnsongrass (Sorghum halepense); conditions: for Plant response rating, Johnsongrass: scale 0 to 100, 0 no effect, 100 complete control
How it was run: as §1

[12] = test system: lambsquarters (Chenopodium album); conditions: for Plant response rating, Lambsquarters: scale 0 to 100, 0 no effect, 100 complete control
How it was run: as §1

[13] = test system: barnyardgrass (Echinochloa crus-galli); conditions: for Plant response rating, Barnyardgrass: scale 0 to 100, 0 no effect, 100 complete control
How it was run: as §1

[14] = test system: ragweed (common ragweed, Ambrosia elatior); conditions: for Plant response rating, Ragweed: scale 0 to 100, 0 no effect, 100 complete control
How it was run: as §1

[15] = test system: blackgrass (Alopecurus myosuroides); conditions: for Plant response rating, Blackgrass: scale 0 to 100, 0 no effect, 100 complete control
How it was run: as §1

[16] = 31 g ai/ha, 0 is no effect, 100 is complete control

**Q.** `O=C1NCC(c2cc(F)cc(C(F)(F)F)c2)C1C(=O)Nc1cccc(F)c1F` (centres unmarked) [Compound 488] was tested. Which “Plant response rating (scale of 0 to 100), Crabgrass, Large” value [1, 16] did it give?
**A.** 90

**Q.** What about the “Plant response rating, Crabgrass, Large” value ([1]; 62 g ai/ha) of the same molecule?
**A.** 95

**Q.** What about the “Plant response rating, Crabgrass, Large” value ([1]; 125 g ai/ha) of the same molecule?
**A.** 95

**Q.** What about the “Plant response rating, Crabgrass, Large” value ([1]; 250 g ai/ha) of the same molecule?
**A.** 100

**Q.** What about the “Plant response rating (scale of 0 to 100), Pigweed” value [2, 16] of the same molecule?
**A.** 20

**Q.** And the “Plant response rating, Pigweed” value ([2]; 62 g ai/ha)?
**A.** 75

**Q.** And the “Plant response rating, Pigweed” value ([2]; 125 g ai/ha)?
**A.** 70

**Q.** And the “Plant response rating, Pigweed” value ([2]; 250 g ai/ha)?
**A.** 85

**Q.** And the “Plant response rating (scale of 0 to 100), Soybean” value (soybean (Glycine max); [16])?
**A.** 0

**Q.** What about the “Plant response rating, Soybean” value (soybean (Glycine max); 62 g ai/ha) of the same molecule?
**A.** 0

**Q.** And the “Plant response rating, Soybean” value (soybean (Glycine max); 125 g ai/ha)?
**A.** 0

**Q.** What about the “Plant response rating, Soybean” value (soybean (Glycine max); 250 g ai/ha) of the same molecule?
**A.** 10

**Q.** What about the “Plant response rating (scale of 0 to 100), Morningglory” value [3, 16] of the same molecule?
**A.** 0

**Q.** And the “Plant response rating, Morningglory” value ([3]; 62 g ai/ha)?
**A.** 25

**Q.** What about the “Plant response rating, Morningglory” value ([3]; 125 g ai/ha) of the same molecule?
**A.** 55

**Q.** What about the “Plant response rating, Morningglory” value ([3]; 250 g ai/ha) of the same molecule?
**A.** 60

**Q.** And the “Plant response rating (scale of 0 to 100), Velvetleaf” value [4, 16]?
**A.** 0

**Q.** What about the “Plant response rating, Velvetleaf” value ([4]; 62 g ai/ha) of the same molecule?
**A.** 0

**Q.** And the “Plant response rating, Velvetleaf” value ([4]; 125 g ai/ha)?
**A.** 10

**Q.** What about the “Plant response rating, Velvetleaf” value ([4]; 250 g ai/ha) of the same molecule?
**A.** 20

**Q.** What about the “Plant response rating (scale of 0 to 100), Foxtail, Giant” value [5, 16] of the same molecule?
**A.** 85

**Q.** What about the “Plant response rating, Foxtail, Giant” value ([5]; 62 g ai/ha) of the same molecule?
**A.** 90

**Q.** And the “Plant response rating, Foxtail, Giant” value ([5]; 125 g ai/ha)?
**A.** 90

**Q.** What about the “Plant response rating, Foxtail, Giant” value ([5]; 250 g ai/ha) of the same molecule?
**A.** 95

**Q.** And the “Plant response rating (scale of 0 to 100), Galium” value [6, 16]?
**A.** 80

**Q.** What about the “Plant response rating, Galium” value ([6]; 62 g ai/ha) of the same molecule?
**A.** 85

**Q.** And the “Plant response rating, Galium” value ([6]; 125 g ai/ha)?
**A.** 85

**Q.** And the “Plant response rating, Galium” value ([6]; 250 g ai/ha)?
**A.** 85

**Q.** And the “Plant response rating (scale of 0 to 100), Oilseed Rape” value [7, 16]?
**A.** 40

**Q.** What about the “Plant response rating, Oilseed Rape” value ([7]; 62 g ai/ha) of the same molecule?
**A.** 45

**Q.** And the “Plant response rating, Oilseed Rape” value ([7]; 125 g ai/ha)?
**A.** 85

**Q.** What about the “Plant response rating, Oilseed Rape” value ([7]; 250 g ai/ha) of the same molecule?
**A.** 90

**Q.** What about the “Plant response rating (scale of 0 to 100), Ryegrass, Italian” value [8, 16] of the same molecule?
**A.** 5

**Q.** And the “Plant response rating, Ryegrass, Italian” value ([8]; 62 g ai/ha)?
**A.** 35

**Q.** And the “Plant response rating, Ryegrass, Italian” value ([8]; 125 g ai/ha)?
**A.** 70

**Q.** What about the “Plant response rating, Ryegrass, Italian” value ([8]; 250 g ai/ha) of the same molecule?
**A.** 65

**Q.** And the “Plant response rating (scale of 0 to 100), Wheat” value [9, 16]?
**A.** 35

**Q.** And the “Plant response rating, Wheat” value ([9]; 62 g ai/ha)?
**A.** 35

**Q.** What about the “Plant response rating, Wheat” value ([9]; 125 g ai/ha) of the same molecule?
**A.** 85

**Q.** And the “Plant response rating, Wheat” value ([9]; 250 g ai/ha)?
**A.** 90

**Q.** And the “Plant response rating (scale of 0 to 100), Corn” value (corn (Zea mays); [16])?
**A.** 25

**Q.** And the “Plant response rating, Corn” value (corn (Zea mays); 62 g ai/ha)?
**A.** 60

**Q.** And the “Plant response rating, Corn” value (corn (Zea mays); 125 g ai/ha)?
**A.** 70

**Q.** And the “Plant response rating, Corn” value (corn (Zea mays); 250 g ai/ha)?
**A.** 85

**Q.** And the “Plant response rating (scale of 0 to 100), Nutsedge, Yellow” value [10, 16]?
**A.** 0

**Q.** And the “Plant response rating, Nutsedge, Yellow” value ([10]; 62 g ai/ha)?
**A.** 0

**Q.** What about the “Plant response rating, Nutsedge, Yellow” value ([10]; 125 g ai/ha) of the same molecule?
**A.** 0

**Q.** And the “Plant response rating, Nutsedge, Yellow” value ([10]; 250 g ai/ha)?
**A.** 0

**Q.** And the “Plant response rating (scale of 0 to 100), Johnsongrass” value [11, 16]?
**A.** 70

**Q.** What about the “Plant response rating, Johnsongrass” value ([11]; 62 g ai/ha) of the same molecule?
**A.** 80

**Q.** What about the “Plant response rating, Johnsongrass” value ([11]; 125 g ai/ha) of the same molecule?
**A.** 85

**Q.** And the “Plant response rating, Johnsongrass” value ([11]; 250 g ai/ha)?
**A.** 90

**Q.** What about the “Plant response rating (scale of 0 to 100), Lambsquarters” value [12, 16] of the same molecule?
**A.** 20

**Q.** And the “Plant response rating, Lambsquarters” value ([12]; 62 g ai/ha)?
**A.** 50

**Q.** And the “Plant response rating, Lambsquarters” value ([12]; 125 g ai/ha)?
**A.** 60

**Q.** What about the “Plant response rating, Lambsquarters” value ([12]; 250 g ai/ha) of the same molecule?
**A.** 60

**Q.** And the “Plant response rating (scale of 0 to 100), Barnyardgrass” value [13, 16]?
**A.** 95

**Q.** And the “Plant response rating, Barnyardgrass” value ([13]; 62 g ai/ha)?
**A.** 90

**Q.** What about the “Plant response rating, Barnyardgrass” value ([13]; 125 g ai/ha) of the same molecule?
**A.** 95

**Q.** What about the “Plant response rating, Barnyardgrass” value ([13]; 250 g ai/ha) of the same molecule?
**A.** 95

**Q.** And the “Plant response rating (scale of 0 to 100), Ragweed” value [14, 16]?
**A.** 0

**Q.** And the “Plant response rating, Ragweed” value ([14]; 62 g ai/ha)?
**A.** 25

**Q.** And the “Plant response rating, Ragweed” value ([14]; 125 g ai/ha)?
**A.** 40

**Q.** What about the “Plant response rating, Ragweed” value ([14]; 250 g ai/ha) of the same molecule?
**A.** 70

**Q.** What about the “Plant response rating (scale of 0 to 100), Blackgrass” value [15, 16] of the same molecule?
**A.** 0

**Q.** What about the “Plant response rating, Blackgrass” value ([15]; 62 g ai/ha) of the same molecule?
**A.** 50

**Q.** And the “Plant response rating, Blackgrass” value ([15]; 125 g ai/ha)?
**A.** 90

**Q.** What about the “Plant response rating, Blackgrass” value ([15]; 250 g ai/ha) of the same molecule?
**A.** 85
